In patent US7119075B2, “Use of herbal agents for potentiation of bioefficacy of anti infectives” (priority 2003, dated 2006):

Legend:
Assay in all cases: Inhibitory effect of bioenhancers alone
Format in all cases: cell-based
[1] = test system: Klebsiella pneumoniae ATCC 75388; settings: Klebsiella pneumoniae, ATCC75388
[2] = test system: Pseudomonas aeruginosa ATCC 27583; settings: Pseudomonas aeruginosa, ATCC27583
[3] = test system: Mycobacterium tuberculosis H37Rv; settings: Mycobacterium tuberculosis, H37RV, read-out: inhibitory effect
Salmonella typhi AIIMS 2 = settings: Salmonella enterica, TYPHI, read-out: inhibitory effect
[4] = test system: Staphylococcus epidermidis ATCC 12228; settings: Staphylococcus epidermidis, ATCC12228
[5] = test system: Mycobacterium intracelluare ATCC 13950; settings: Mycobacterium, ATCC13950
[6] = test system: Mycobacterium tuberculosis 615; settings: Mycobacterium tuberculosis, 615
[7] = test system: Aspergillus fumigatus SI-1; settings: Aspergillus fumigatus, SI1
Candida krusei ATCC 6258 = settings: Pichia kudriavzevii, ATCC6258
[8] = test system: Aspergillus flavus MTCC 1973; settings: Aspergillus flavus, MTCC1973
[9] = test system: Candida tropicalis ATCC 750; settings: Candida tropicalis, ATCC750
Bacillus cereus RRL 02 = settings: Bacillus cereus, RRL02
[10] = test system: Mycobacterium avium ATCC 49601; settings: Mycobacterium avium, ATCC49601
[11] = test system: Staphylococcus aureus ATCC 29313; settings: Staphylococcus aureus, ATCC29313
[12] = test system: Staphylococcus hemolyticus ATCC 29978; settings: Staphylococcus, ATCC29978
[13] = test system: Methicillin Resistant Staphylococcus aureus (MRSA); settings: Staphylococcus aureus, MRSA
[14] = test system: Escherichia coli ATCC 25922; settings: Escherichia coli, ATCC25922

O=C(/C=C/C=C/c1ccc2c(c1)OCO2)N1CCCCC1 [piperine]
0%: inhibition at 0.2 µg/mL ([1]; conc. 0.2 μg/ml) | inhibition at 0.8 µg/mL ([1]; conc. 0.8 μg/ml) | inhibition at 3.12 µg/mL ([1]; conc. 3.12 μg/ml) | inhibition at 12.5 µg/mL ([1]; conc. 12.5 μg/ml) | inhibition at 50 µg/mL ([1]; conc. 50 μg/ml) | inhibition at 100 µg/mL ([1]; conc. 100 μg/ml) | inhibition at 0.2 µg/mL ([2]; conc. 0.2 μg/ml) | inhibition at 0.8 µg/mL ([2]; conc. 0.8 μg/ml) | inhibition at 3.12 µg/mL ([2]; conc. 3.12 μg/ml) | inhibition at 12.5 µg/mL ([2]; conc. 12.5 μg/ml) | inhibition at 50 µg/mL ([2]; conc. 50 μg/ml) | inhibition at 100 µg/mL ([2]; conc. 100 μg/ml) | inhibition at 0.2 µg/mL [3] | inhibition at 0.8 µg/mL [3] | inhibition at 3.12 µg/mL [3] | inhibition at 12.5 µg/mL [3] | inhibition at 50 µg/mL [3] | inhibition at 100 µg/mL [3] | inhibition at 0.2 µg/mL (Salmonella typhi AIIMS 2) | inhibition at 0.8 µg/mL (Salmonella typhi AIIMS 2) | inhibition at 3.12 µg/mL (Salmonella typhi AIIMS 2) | inhibition at 12.5 µg/mL (Salmonella typhi AIIMS 2) | inhibition at 50 µg/mL (Salmonella typhi AIIMS 2) | inhibition at 100 µg/mL (Salmonella typhi AIIMS 2) | inhibition at 0.2 µg/mL ([4]; conc. 0.2 μg/ml) | inhibition at 0.8 µg/mL ([4]; conc. 0.8 μg/ml) | inhibition at 3.12 µg/mL ([4]; conc. 3.12 μg/ml) | inhibition at 12.5 µg/mL ([4]; conc. 12.5 μg/ml) | inhibition at 0.2 µg/mL ([5]; conc. 0.2 μg/ml) | inhibition at 0.8 µg/mL ([5]; conc. 0.8 μg/ml) | inhibition at 3.12 µg/mL ([5]; conc. 3.12 μg/ml) | inhibition at 12.5 µg/mL ([5]; conc. 12.5 μg/ml) | inhibition at 50 µg/mL ([5]; conc. 50 μg/ml) | inhibition at 100 µg/mL ([5]; conc. 100 μg/ml) | inhibition at 0.2 µg/mL ([6]; conc. 0.2 μg/ml) | inhibition at 0.8 µg/mL ([6]; conc. 0.8 μg/ml) | inhibition at 3.12 µg/mL ([6]; conc. 3.12 μg/ml) | inhibition at 12.5 µg/mL ([6]; conc. 12.5 μg/ml) | inhibition at 50 µg/mL ([6]; conc. 50 μg/ml) | inhibition at 100 µg/mL ([6]; conc. 100 μg/ml) | inhibition at 0.2 µg/mL ([7]; conc. 0.2 μg/ml) | inhibition at 0.8 µg/mL ([7]; conc. 0.8 μg/ml) | inhibition at 3.12 µg/mL ([7]; conc. 3.12 μg/ml) | inhibition at 12.5 µg/mL ([7]; conc. 12.5 μg/ml) | inhibition at 0.2 µg/mL (Candida krusei ATCC 6258; conc. 0.2 μg/ml) | inhibition at 0.8 µg/mL (Candida krusei ATCC 6258; conc. 0.8 μg/ml) | inhibition at 3.12 µg/mL (Candida krusei ATCC 6258; conc. 3.12 μg/ml) | inhibition at 12.5 µg/mL (Candida krusei ATCC 6258; conc. 12.5 μg/ml) | inhibition at 50 µg/mL (Candida krusei ATCC 6258; conc. 50 μg/ml) | inhibition at 0.2 µg/mL ([8]; conc. 0.2 μg/ml) | inhibition at 0.8 µg/mL ([8]; conc. 0.8 μg/ml) | inhibition at 3.12 µg/mL ([8]; conc. 3.12 μg/ml) | inhibition at 12.5 µg/mL ([8]; conc. 12.5 μg/ml) | inhibition at 0.2 µg/mL ([9]; conc. 0.2 μg/ml) | inhibition at 0.8 µg/mL ([9]; conc. 0.8 μg/ml) | inhibition at 3.12 µg/mL ([9]; conc. 3.12 μg/ml) | inhibition at 12.5 µg/mL ([9]; conc. 12.5 μg/ml) | inhibition at 50 µg/mL ([9]; conc. 50 μg/ml) | inhibition at 0.2 µg/mL (Bacillus cereus RRL 02; conc. 0.2 μg/ml) | inhibition at 0.8 µg/mL (Bacillus cereus RRL 02; conc. 0.8 μg/ml) | inhibition at 3.12 µg/mL (Bacillus cereus RRL 02; conc. 3.12 μg/ml) | inhibition at 12.5 µg/mL (Bacillus cereus RRL 02; conc. 12.5 μg/ml) | inhibition at 50 µg/mL (Bacillus cereus RRL 02; conc. 50 μg/ml) | inhibition at 100 µg/mL (Bacillus cereus RRL 02; conc. 100 μg/ml) | inhibition at 0.2 µg/mL ([10]; conc. 0.2 μg/ml) | inhibition at 0.8 µg/mL ([10]; conc. 0.8 μg/ml) | inhibition at 3.12 µg/mL ([10]; conc. 3.12 μg/ml) | inhibition at 12.5 µg/mL ([10]; conc. 12.5 μg/ml) | inhibition at 50 µg/mL ([10]; conc. 50 μg/ml) | inhibition at 100 µg/mL ([10]; conc. 100 μg/ml) | inhibition at 0.2 µg/mL ([11]; conc. 0.2 μg/ml) | inhibition at 0.8 µg/mL ([11]; conc. 0.8 μg/ml) | inhibition at 3.12 µg/mL ([11]; conc. 3.12 μg/ml) | inhibition at 12.5 µg/mL ([11]; conc. 12.5 μg/ml) | inhibition at 50 µg/mL ([11]; conc. 50 μg/ml) | inhibition at 0.2 µg/mL ([12]; conc. 0.2 μg/ml) | inhibition at 0.8 µg/mL ([12]; conc. 0.8 μg/ml) | inhibition at 3.12 µg/mL ([12]; conc. 3.12 μg/ml) | inhibition at 12.5 µg/mL ([12]; conc. 12.5 μg/ml) | inhibition at 0.2 µg/mL ([13]; conc. 0.2 μg/ml) | inhibition at 0.8 µg/mL ([13]; conc. 0.8 μg/ml) | inhibition at 3.12 µg/mL ([13]; conc. 3.12 μg/ml) | inhibition at 12.5 µg/mL ([13]; conc. 12.5 μg/ml) | inhibition at 50 µg/mL ([13]; conc. 50 μg/ml) | inhibition at 0.2 µg/mL ([14]; conc. 0.2 μg/ml) | inhibition at 0.8 µg/mL ([14]; conc. 0.8 μg/ml) | inhibition at 3.12 µg/mL ([14]; conc. 3.12 μg/ml) | inhibition at 12.5 µg/mL ([14]; conc. 12.5 μg/ml) | inhibition at 50 µg/mL ([14]; conc. 50 μg/ml) | inhibition at 100 µg/mL ([14]; conc. 100 μg/ml)
20%: inhibition at 50 µg/mL ([4]; conc. 50 μg/ml) | inhibition at 50 µg/mL ([7]; conc. 50 μg/ml) | inhibition at 100 µg/mL (Candida krusei ATCC 6258; conc. 100 μg/ml) | inhibition at 50 µg/mL ([8]; conc. 50 μg/ml) | inhibition at 100 µg/mL ([9]; conc. 100 μg/ml) | inhibition at 100 µg/mL ([11]; conc. 100 μg/ml) | inhibition at 50 µg/mL ([12]; conc. 50 μg/ml) | inhibition at 100 µg/mL ([13]; conc. 100 μg/ml)
50%: inhibition at 100 µg/mL ([4]; conc. 100 μg/ml) | inhibition at 100 µg/mL ([7]; conc. 100 μg/ml) | inhibition at 100 µg/mL ([8]; conc. 100 μg/ml) | inhibition at 100 µg/mL ([12]; conc. 100 μg/ml)
